Test results as given in ChEMBL document CHEMBL4804286, “3-amino-4-(4-(4 (dimethylcarbamoyl) phenyl)-1,4-diazepan-1-yl) thieno [2,3-b] pyridine-2-carboxamide for use in cancer therapy and formulations comprising the same” (2020).
“And” between values parts separate entries of the source, which are not always exact repeats. Equal entries are not always repeated. The source made the active and inactive calls. No cut-off for these calls is given here.

Key:
[1] = molecular target: Mitogen-activated protein kinase kinase kinase 6 (Homo sapiens) (UniProt O95382); assay: Inhibition of human ASK2 assessed as percent of control at 2000 nM by KINOMEscan assay relative to control; set-up: scale not given: the % may be the effect or the level left
[2] = molecular target: Death-associated protein kinase 3 (Homo sapiens) (UniProt O43293); assay: Inhibition of human DAPK3 assessed as percent of control at 2000 nM by KINOMEscan assay relative to control; set-up: scale not given: the % may be the effect or the level left
Sequence of Death-associated protein kinase 3 (Homo sapiens) (O43293 whole entry, looked up): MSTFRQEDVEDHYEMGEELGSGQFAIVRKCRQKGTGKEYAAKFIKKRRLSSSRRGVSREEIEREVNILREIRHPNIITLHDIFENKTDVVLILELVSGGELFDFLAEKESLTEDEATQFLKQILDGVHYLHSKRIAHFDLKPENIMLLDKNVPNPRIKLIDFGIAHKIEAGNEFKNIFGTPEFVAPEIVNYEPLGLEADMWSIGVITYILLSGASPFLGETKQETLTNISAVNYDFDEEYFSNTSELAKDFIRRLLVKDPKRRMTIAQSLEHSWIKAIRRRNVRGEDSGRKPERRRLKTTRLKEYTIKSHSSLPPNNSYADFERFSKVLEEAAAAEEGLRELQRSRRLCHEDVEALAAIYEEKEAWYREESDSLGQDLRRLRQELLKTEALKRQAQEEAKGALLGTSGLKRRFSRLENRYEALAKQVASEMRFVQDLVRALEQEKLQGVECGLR

[3] = molecular target: Tyrosine-protein kinase Lyn (Homo sapiens) (UniProt P07948); assay: Inhibition of human LYN assessed as percent of control at 2000 nM by KINOMEscan assay relative to control; set-up: scale not given: the % may be the effect or the level left
Sequence of Tyrosine-protein kinase Lyn (Homo sapiens) (P07948 2-512 limits assumed): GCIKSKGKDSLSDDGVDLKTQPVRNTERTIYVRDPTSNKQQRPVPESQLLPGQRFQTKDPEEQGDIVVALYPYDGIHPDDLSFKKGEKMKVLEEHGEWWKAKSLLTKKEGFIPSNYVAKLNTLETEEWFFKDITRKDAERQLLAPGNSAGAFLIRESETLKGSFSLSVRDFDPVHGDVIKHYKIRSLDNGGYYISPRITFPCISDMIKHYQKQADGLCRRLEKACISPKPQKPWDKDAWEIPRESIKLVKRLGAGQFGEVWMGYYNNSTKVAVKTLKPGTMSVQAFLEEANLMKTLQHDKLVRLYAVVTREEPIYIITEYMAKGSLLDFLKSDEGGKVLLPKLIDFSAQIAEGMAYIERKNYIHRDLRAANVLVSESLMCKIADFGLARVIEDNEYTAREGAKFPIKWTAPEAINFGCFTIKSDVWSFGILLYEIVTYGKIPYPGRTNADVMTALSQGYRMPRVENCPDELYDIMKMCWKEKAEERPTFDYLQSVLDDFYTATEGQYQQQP

[4] = molecular target: Serine/threonine-protein kinase Sgk1 (Homo sapiens) (UniProt O00141); assay: Inhibition of human SGK assessed as percent of control at 2000 nM by KINOMEscan assay relative to control; set-up: scale not given: the % may be the effect or the level left
Myc-CaP [5] = assay: Antitumor activity against murine castration-resistant Myc-CaP cells xenografted in male FVB mouse assessed as suppression of tumor weight; type: functional
[6] = molecular target: Tyrosine-protein kinase HCK (Homo sapiens) (UniProt P08631); assay: Inhibition of human HCK assessed as percent of control at 2000 nM by KINOMEscan assay relative to control; set-up: scale not given: the % may be the effect or the level left
[7] = test system: Phosphatidylinositol 4,5-bisphosphate 3-kinase catalytic subunit alpha isoform (Homo sapiens), P42336 [M1043I]; assay: Inhibition of human PIK3CA M1043I mutant assessed as percent of control at 2000 nM by KINOMEscan assay relative to control; set-up: scale not given: the % may be the effect or the level left
[8] = molecular target: Phosphatidylinositol 4-phosphate 5-kinase type-1 gamma (Homo sapiens) (UniProt O60331); assay: Inhibition of human PIP5K1C assessed as percent of control at 2000 nM by KINOMEscan assay relative to control; set-up: scale not given: the % may be the effect or the level left
[9] = molecular target: Casein kinase I isoform epsilon (Homo sapiens) (UniProt P49674); conditions: INHIBITOR, dose 2000.0 nM
Sequence of Casein kinase I isoform epsilon (Homo sapiens) (P49674 whole entry, looked up, canonical isoform): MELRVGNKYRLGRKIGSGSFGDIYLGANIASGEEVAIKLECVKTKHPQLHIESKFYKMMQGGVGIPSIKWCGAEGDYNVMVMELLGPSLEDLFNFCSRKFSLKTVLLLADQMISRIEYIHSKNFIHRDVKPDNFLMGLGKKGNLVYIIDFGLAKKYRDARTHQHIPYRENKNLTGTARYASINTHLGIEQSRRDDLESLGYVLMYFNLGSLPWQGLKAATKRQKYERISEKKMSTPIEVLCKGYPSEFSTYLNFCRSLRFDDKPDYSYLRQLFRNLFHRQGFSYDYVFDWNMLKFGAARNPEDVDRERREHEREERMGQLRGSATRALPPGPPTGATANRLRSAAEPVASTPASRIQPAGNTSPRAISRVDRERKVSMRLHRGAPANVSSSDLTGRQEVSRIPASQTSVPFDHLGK
Description: Inhibition of human CSNK1E at 2000 nM by KINOMEscan assay

[10] = molecular target: Testis-specific serine/threonine-protein kinase 3 (Homo sapiens) (UniProt Q96PN8); assay: Inhibition of human TSSK3 assessed as percent of control at 2000 nM by KINOMEscan assay relative to control; set-up: scale not given: the % may be the effect or the level left
[11] = molecular target: Mitogen-activated protein kinase 3 (Homo sapiens) (UniProt P27361); assay: Inhibition of human ERK1 assessed as percent of control at 2000 nM by KINOMEscan assay relative to control; set-up: scale not given: the % may be the effect or the level left
[12] = molecular target: Serine/threonine-protein kinase/endoribonuclease IRE1 (Homo sapiens) (UniProt O75460); assay: Inhibition of human ERN1 assessed as percent of control at 2000 nM by KINOMEscan assay relative to control; set-up: scale not given: the % may be the effect or the level left
[13] = molecular target: Interleukin-1 receptor-associated kinase 4 (Homo sapiens) (UniProt Q9NWZ3); assay: Inhibition of human IRAK4 assessed as percent of control at 2000 nM by KINOMEscan assay relative to control; set-up: scale not given: the % may be the effect or the level left
[14] = molecular target: Protein-tyrosine kinase 6 (Homo sapiens) (UniProt Q13882); assay: Inhibition of human BRK assessed as percent of control at 2000 nM by KINOMEscan assay relative to control; set-up: scale not given: the % may be the effect or the level left
[15] = molecular target: Tyrosine-protein kinase Srms (Homo sapiens) (UniProt Q9H3Y6); assay: Inhibition of human SRMS assessed as percent of control at 2000 nM by KINOMEscan assay relative to control; set-up: scale not given: the % may be the effect or the level left
Sequence of Tyrosine-protein kinase Srms (Homo sapiens) (Q9H3Y6 whole entry): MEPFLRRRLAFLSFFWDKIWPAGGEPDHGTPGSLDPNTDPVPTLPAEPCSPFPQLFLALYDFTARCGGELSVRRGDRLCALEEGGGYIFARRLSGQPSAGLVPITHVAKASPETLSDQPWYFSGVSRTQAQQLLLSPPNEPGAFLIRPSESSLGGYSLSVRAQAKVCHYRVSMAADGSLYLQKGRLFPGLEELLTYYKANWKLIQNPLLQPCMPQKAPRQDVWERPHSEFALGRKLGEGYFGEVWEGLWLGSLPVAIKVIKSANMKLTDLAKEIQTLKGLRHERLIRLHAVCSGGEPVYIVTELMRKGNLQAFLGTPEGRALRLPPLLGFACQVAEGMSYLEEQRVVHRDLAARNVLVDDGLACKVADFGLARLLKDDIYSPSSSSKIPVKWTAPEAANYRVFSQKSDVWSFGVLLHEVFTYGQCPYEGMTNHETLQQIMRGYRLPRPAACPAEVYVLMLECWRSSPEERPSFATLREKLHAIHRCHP

[16] = molecular target: Rhodopsin kinase GRK7 (Homo sapiens) (UniProt Q8WTQ7); assay: Inhibition of human GRK7 assessed as percent of control at 2000 nM by KINOMEscan assay relative to control; set-up: scale not given: the % may be the effect or the level left
[17] = molecular target: Serine/threonine-protein kinase TAO3 (Homo sapiens) (UniProt Q9H2K8); assay: Inhibition of human TAOK3 assessed as percent of control at 2000 nM by KINOMEscan assay relative to control; set-up: scale not given: the % may be the effect or the level left
[18] = molecular target: Cyclin-dependent kinase 4 (Homo sapiens) (UniProt P11802); assay: Inhibition of human CDK4 assessed as percent of control at 2000 nM by KINOMEscan assay relative to control; set-up: scale not given: the % may be the effect or the level left
[19] = molecular target: Serine/threonine-protein kinase PAK 2 (Homo sapiens) (UniProt Q13177); assay: Inhibition of human PAK2 assessed as percent of control at 2000 nM by KINOMEscan assay relative to control; set-up: scale not given: the % may be the effect or the level left
[20] = molecular target: Casein kinase I isoform epsilon (Homo sapiens) (UniProt P49674); assay: Inhibition of human CSNK1E assessed as percent of control at 2000 nM by KINOMEscan assay relative to control; set-up: scale not given: the % may be the effect or the level left; conditions: INHIBITOR
[21] = molecular target: Serine/threonine-protein kinase Nek7 (Homo sapiens) (UniProt Q8TDX7); assay: Inhibition of human NEK7 assessed as percent of control at 2000 nM by KINOMEscan assay relative to control; set-up: scale not given: the % may be the effect or the level left
Sequence of Serine/threonine-protein kinase Nek7 (Homo sapiens) (Q8TDX7 whole entry, looked up): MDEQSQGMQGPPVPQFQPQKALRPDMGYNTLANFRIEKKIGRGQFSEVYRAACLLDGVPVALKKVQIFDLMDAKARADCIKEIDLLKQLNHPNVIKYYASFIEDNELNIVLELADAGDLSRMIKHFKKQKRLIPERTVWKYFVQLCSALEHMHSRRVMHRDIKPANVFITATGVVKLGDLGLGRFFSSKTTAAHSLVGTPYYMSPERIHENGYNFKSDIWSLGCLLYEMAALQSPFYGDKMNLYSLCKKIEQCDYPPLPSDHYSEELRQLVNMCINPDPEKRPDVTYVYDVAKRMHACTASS

[22] = molecular target: Macrophage colony-stimulating factor 1 receptor (Homo sapiens) (UniProt P07333); assay: Inhibition of human autoinhibited CSF1R assessed as percent of control at 2000 nM by KINOMEscan assay relative to control; set-up: scale not given: the % may be the effect or the level left
Sequence of Macrophage colony-stimulating factor 1 receptor (Homo sapiens) (P07333 whole entry): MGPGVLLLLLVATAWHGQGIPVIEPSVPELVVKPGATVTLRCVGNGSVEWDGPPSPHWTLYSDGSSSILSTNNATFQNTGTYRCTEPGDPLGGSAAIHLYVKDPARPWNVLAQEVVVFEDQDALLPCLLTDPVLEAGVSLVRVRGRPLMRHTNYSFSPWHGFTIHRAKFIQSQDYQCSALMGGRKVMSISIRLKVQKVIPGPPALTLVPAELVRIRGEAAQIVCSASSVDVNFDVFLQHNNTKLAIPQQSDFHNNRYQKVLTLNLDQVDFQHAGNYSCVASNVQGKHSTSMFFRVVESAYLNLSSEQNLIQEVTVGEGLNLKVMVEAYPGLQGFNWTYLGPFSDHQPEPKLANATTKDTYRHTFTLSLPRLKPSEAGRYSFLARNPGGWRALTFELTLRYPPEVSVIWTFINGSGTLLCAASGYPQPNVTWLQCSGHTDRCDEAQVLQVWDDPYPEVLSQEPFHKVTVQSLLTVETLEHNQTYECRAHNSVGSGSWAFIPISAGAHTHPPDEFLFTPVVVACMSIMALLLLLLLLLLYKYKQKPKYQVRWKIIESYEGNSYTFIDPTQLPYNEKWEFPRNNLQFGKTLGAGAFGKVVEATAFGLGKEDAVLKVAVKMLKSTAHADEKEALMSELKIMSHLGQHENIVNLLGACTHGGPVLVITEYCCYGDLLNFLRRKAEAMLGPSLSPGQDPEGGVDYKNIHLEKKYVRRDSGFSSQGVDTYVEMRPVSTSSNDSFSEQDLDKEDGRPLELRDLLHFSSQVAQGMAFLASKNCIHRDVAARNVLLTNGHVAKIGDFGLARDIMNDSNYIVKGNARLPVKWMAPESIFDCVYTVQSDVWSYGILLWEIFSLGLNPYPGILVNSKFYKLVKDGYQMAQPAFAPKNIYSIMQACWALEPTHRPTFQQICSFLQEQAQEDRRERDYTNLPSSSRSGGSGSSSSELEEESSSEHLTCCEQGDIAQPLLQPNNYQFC

[23] = molecular target: Serine/threonine-protein kinase 38-like (Homo sapiens) (UniProt Q9Y2H1); assay: Inhibition of human NDR2 assessed as percent of control at 2000 nM by KINOMEscan assay relative to control; set-up: scale not given: the % may be the effect or the level left
[24] = molecular target: Serine/threonine-protein kinase PAK 1 (Homo sapiens) (UniProt Q13153); assay: Inhibition of human PAK1 assessed as percent of control at 2000 nM by KINOMEscan assay relative to control; set-up: scale not given: the % may be the effect or the level left
[25] = molecular target: Dual specificity mitogen-activated protein kinase kinase 1 (Homo sapiens) (UniProt Q02750); assay: Inhibition of human MEK1 assessed as percent of control at 2000 nM by KINOMEscan assay relative to control; set-up: scale not given: the % may be the effect or the level left
[26] = molecular target: Mitogen-activated protein kinase kinase kinase 12 (Homo sapiens) (UniProt Q12852); assay: Inhibition of human DLK assessed as percent of control at 2000 nM by KINOMEscan assay relative to control; set-up: scale not given: the % may be the effect or the level left
[27] = molecular target: Tyrosine-protein kinase Lck (Homo sapiens) (UniProt P06239); assay: Inhibition of human LCK assessed as percent of control at 2000 nM by KINOMEscan assay relative to control; set-up: scale not given: the % may be the effect or the level left
[28] = molecular target: Serine/threonine-protein kinase 38 (Homo sapiens) (UniProt Q15208); assay: Inhibition of human NDR1 assessed as percent of control at 2000 nM by KINOMEscan assay relative to control; set-up: scale not given: the % may be the effect or the level left
Sequence of Serine/threonine-protein kinase 38 (Homo sapiens) (Q15208 2-465 limits assumed): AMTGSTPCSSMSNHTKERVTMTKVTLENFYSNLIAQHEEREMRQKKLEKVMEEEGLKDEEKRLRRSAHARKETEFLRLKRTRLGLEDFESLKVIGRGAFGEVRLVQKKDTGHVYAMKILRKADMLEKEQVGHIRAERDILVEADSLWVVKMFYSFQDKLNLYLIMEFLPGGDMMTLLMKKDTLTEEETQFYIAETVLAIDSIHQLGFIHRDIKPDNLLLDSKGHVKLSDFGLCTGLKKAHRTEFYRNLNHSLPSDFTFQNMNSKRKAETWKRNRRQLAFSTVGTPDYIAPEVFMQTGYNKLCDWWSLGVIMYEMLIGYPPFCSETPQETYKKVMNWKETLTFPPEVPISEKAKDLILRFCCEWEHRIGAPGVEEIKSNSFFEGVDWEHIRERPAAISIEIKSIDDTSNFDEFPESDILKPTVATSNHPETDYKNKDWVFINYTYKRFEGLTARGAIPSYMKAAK

[29] = molecular target: SRSF protein kinase 1 (Homo sapiens) (UniProt Q96SB4); assay: Inhibition of human SRPK1 assessed as percent of control at 2000 nM by KINOMEscan assay relative to control; set-up: scale not given: the % may be the effect or the level left
[30] = molecular target: Serine/threonine-protein kinase TAO2 (Homo sapiens) (UniProt Q9UL54); assay: Inhibition of human TAOK2 assessed as percent of control at 2000 nM by KINOMEscan assay relative to control; set-up: scale not given: the % may be the effect or the level left
Sequence of Serine/threonine-protein kinase TAO2 (Homo sapiens) (Q9UL54 whole entry): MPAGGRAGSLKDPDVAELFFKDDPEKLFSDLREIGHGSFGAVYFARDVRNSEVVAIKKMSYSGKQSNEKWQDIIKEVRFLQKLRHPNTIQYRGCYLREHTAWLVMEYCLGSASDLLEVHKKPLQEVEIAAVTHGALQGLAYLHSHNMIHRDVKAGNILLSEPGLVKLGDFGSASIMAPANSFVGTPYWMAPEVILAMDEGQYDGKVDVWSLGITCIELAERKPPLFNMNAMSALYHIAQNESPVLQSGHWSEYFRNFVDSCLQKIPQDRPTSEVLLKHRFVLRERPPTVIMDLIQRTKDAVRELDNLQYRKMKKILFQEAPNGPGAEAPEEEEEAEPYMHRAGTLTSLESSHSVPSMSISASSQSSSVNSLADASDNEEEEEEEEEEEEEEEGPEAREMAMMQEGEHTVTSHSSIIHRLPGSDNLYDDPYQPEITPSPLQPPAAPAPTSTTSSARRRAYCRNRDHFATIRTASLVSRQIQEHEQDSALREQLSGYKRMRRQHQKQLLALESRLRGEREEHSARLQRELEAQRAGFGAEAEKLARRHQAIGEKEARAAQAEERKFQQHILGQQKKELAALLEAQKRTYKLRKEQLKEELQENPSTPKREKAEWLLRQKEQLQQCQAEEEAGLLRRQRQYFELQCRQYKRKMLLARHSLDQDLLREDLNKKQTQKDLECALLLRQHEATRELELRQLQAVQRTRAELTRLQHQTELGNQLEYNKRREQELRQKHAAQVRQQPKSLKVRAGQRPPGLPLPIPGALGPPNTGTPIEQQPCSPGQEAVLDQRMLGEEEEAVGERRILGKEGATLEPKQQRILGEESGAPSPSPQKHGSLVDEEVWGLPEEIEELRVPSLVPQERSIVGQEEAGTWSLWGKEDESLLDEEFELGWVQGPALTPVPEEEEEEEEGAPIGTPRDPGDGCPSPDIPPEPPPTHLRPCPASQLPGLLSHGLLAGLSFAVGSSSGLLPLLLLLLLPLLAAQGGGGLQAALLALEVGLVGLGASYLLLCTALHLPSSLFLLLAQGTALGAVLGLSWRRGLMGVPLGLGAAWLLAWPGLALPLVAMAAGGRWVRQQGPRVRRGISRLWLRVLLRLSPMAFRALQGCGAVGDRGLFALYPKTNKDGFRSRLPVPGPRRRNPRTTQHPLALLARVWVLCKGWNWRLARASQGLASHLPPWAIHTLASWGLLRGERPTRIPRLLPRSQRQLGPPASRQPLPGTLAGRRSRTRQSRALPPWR

Myc-CaP [31] = assay: Inhibition of colony formation in murine castration-resistant Myc-CaP cells at 1 uM by clonogenic assay; type: functional; conditions: Mus musculus
[32] = molecular target: Mitogen-activated protein kinase kinase kinase 11 (Homo sapiens) (UniProt Q16584); assay: Inhibition of human MLK3 assessed as percent of control at 2000 nM by KINOMEscan assay relative to control; set-up: scale not given: the % may be the effect or the level left

SMILES: CN(C)C(=O)c1ccc(N2CCCN(c3ccnc4sc(C(N)=O)c(N)c34)CC2)cc1
- Activity [1]: 90% and 88%
- Activity [2]: 81% and 83%
- Activity [3]: 100% and 98%
- Activity [4]: 86% and 83%
- Activity (Myc-CaP [5]): Active
- Activity [6]: 96%
- Activity [7]: 96% and 95%
- Activity [8]: 64%
- Activity ([8]; INHIBITOR): 25%
- inhibition [9]: > 65%
- Activity [10]: 93% and 100%
- Activity [11]: 100% and 97%
- Activity [12]: 100% and 80%
- Activity [13]: 89% and 78%
- Activity [14]: 100% and 99%
- Activity [15]: 81% and 93%
- Activity [16]: 100% and 92%
- Activity [17]: 98% and 73%
- Activity [18]: 73% and 71%
- Activity [19]: 91% and 94%
- Activity [20]: 25% and 12%
- Activity [21]: 100% and 86%
- Activity [22]: 88% and 83%
- Activity [23]: 99%
- Activity ([23]; INHIBITOR): 36%
- Activity [24]: 96% and 92%
- Activity [25]: 93% and 83%
- Activity [26]: 93% and 89%
- Activity [27]: 91% and 100%
- Activity [28]: 100% and 80%
- Activity [29]: 100% and 97%
- Activity [30]: 92% and 93%
- inhibition (Myc-CaP [31]): Active
- Activity [32]: 99% and 100%
